The target in experiment [1] is T1, SCRM-MUTE (Arabidopsis thaliana, UniProt Q9M8K6).
T1 construct: MUTE (1-202); GST (N, cleaved yes); made in house; host or cells: E. coli BL21
T1 sequence (Q9M8K6 1-202): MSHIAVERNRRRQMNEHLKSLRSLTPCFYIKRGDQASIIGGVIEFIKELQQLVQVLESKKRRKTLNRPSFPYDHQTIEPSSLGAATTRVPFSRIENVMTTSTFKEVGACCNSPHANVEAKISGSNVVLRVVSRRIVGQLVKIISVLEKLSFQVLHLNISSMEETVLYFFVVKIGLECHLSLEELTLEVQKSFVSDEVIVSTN
Nature of the experiment: BLI of SCRM-MUTE interaction in presence of compound. Type of experiment: binding, A. thaliana. Conditions: for effect on the SCRM-MUTE heterodimerization (in words): BLI and ITC (Supplementary Fig. 9, Supplementary Tables 2, 3); for Response: BLI, GST-SCRM loaded, in nm (unit assumed). The source says: (§1) A. thaliana SCRM (1-494), ΔNSPCH (98-364), MUTE (1-202), ΔNFAMA (190-414), MUTEΔC (1-114), MUTER133A_R134A, MUTEE162A_E163A, MUTER133A_R134A_E162A_E163A, SCRM-ACTL (405-494), MUTE-ACTL (114-202), SPCH-ACTL (285-364), FAMA-ACTL (306-414), MUTE_ACTLR133A_R134A, MUTE_ACTLE162A_E163A, MUTE_ACTLR133A_R134A_E162A_E163A were cloned into pGEX-4T-1 vector with an N-terminal GST tag and a thrombin cleavage sequence. For protein expression, the constructs were transformed into E. coli strain BL21. For each transformant, a single colony was selected and incubated in 10 ml LB liquid media. The overnight-incubated E. coli suspensions were transferred to 1 L LB medium and incubated at 37 °C for around 2 h until the OD600 reached 0.4–0.6. The isopropyl β-D-1-thiogalactopyranoside ([…] of final concentration) was added to the cultures and the strains were incubated at 22 °C for a further 18 h. GST-fused proteins were purified using glutathione agarose resin. The soluble portion of the cell lysate was loaded onto a GST-Sepharose column. Nonspecifically bound proteins were removed by washing the column with 20 mM Tris pH 8.0, 200 mM NaCl. The bound GST-fused protein was eluted with 10 mm glutathione and 20 mM Tris pH 8.0, 200 mM NaCl. The GST-fused proteins were exchanged with phosphate-buffered saline buffer, and then the solution was treated with 50 μg of thrombin for 10–12 h at 16 ^οC. The GST portion of the protein was cleaved during thrombin digestion, and then the whole solution was reloaded onto the glutathione S-transferase column to obtain pure protein. The purified proteins were further purified by gel filtration on a Superdex-200 (GE) column using fast protein liquid chromatography and phosphate buffer (pH 7.2) as the eluent. The purity of the protein was checked by SDS-PAGE. For detailed lists of oligo DNA and plasmid information, see Supplementary Tables 5, 6, respectively.
The binding affinities of SCRM to MUTE / MUTER133A_R134A / MUTEE162A_E163A / MUTER133A_R134A_E162A_E163A in presence and absence of Stomidazolone (3) and its analogues (AYSJ1059 (5) and AYSJ1061 (6)), and Stomidazolone / AYSJ1059 / AYSJ1061 interactions with GST-tagged SCRM, MUTE, SPCH, FAMA, MUTE ΔACTL, MUTE_ACTL, SCRM_ACTL, SPCH_ACTL and FAMA_ACTL, MUTER133A_134A, MUTEE162A_E163A, MUTER133A_R134A_E162A_E163A were measured using the Octet Red96 system (ForteBio, Pall Life Sciences) following the manufacturer’s protocols. The optical probes coated with anti-GST were first loaded with 500 nM GST tagged proteins before kinetic binding analyses. The experiment was performed in 96-well plates maintained at 30 °C. Each well was loaded with 200 μL reaction volume for the experiment. The binding buffer used in these experiments contained 1× PBS supplemented with 2% DMSO, 0.02% Tween20. The concentrations of the Stomidazolone as the analyte in the binding buffer were 100, 50, 25, 12.5, 6.25, 3.12, and 1.56 μM. There was no binding of the analytes to the unloaded probes as shown by the control wells. Binding kinetics to all seven concentrations of the analytes were measured simultaneously using default parameters on the instrument. The data were analyzed using the Octet data analysis software. The association and dissociation curves were fit with the 1:1 homogeneous ligand model. The kobs (observed rate constant) values were used to calculate Kd, with steady-state analysis of the direct binding. See Supplementary Table 3 for details.

Experiment [2] addresses T1, SCRM-MUTE. Nature of the experiment: ITC of SCRM binding to MUTE in presence of compound. The following applies: for n of SCRM_MUTE binding: without 0.96; for -T△S of SCRM_MUTE binding: without 25.3 ± 0.5; for △G of SCRM_MUTE binding: without -5.2 ± 0.2; for △H of SCRM_MUTE binding: without -30.5 ± 0.6. On the set-up: species or system A. thaliana.
Excerpt: as §1
Binding of the small molecule Stomidazolone (3) to SCRM, MUTE, SPCH, FAMA, MUTEΔC, MUTE_ACTL, SCRM_ACTL, SPCH_ACTL and FAMA_ACTL, MUTER133A_R134A, MUTEE162A_E163A, MUTER133A_R134A_E162A_E163A, as well as SCRM binding to MUTE in the presence and absence of Stomidazolone (3) / AYSJ1059 (5) /AYSJ1061 (6) was characterized at 30 °C using a Malvern PEAQ-ITC microcalorimeter. All the protein samples were dialyzed overnight using PBS buffer containing 2% DMSO and 1 mM DTT. Stomidazolone was dissolved in PBS buffer containing 2% DMSO and 1 mM DTT. Titrations were performed by injecting 1 × 0.5-μL and 12 × 3-μL or 1 × 0.75-μL and 18 × 2-μL or 1 × 0.2-μL and 25 × 1.3-μL aliquots of 1 mM Stomidazolone / AYSJ1059 / AYSJ1061 to 5-30 μM of protein in PBS buffer pH 7.4, containing 2% DMSO and 1 mM DTT. All titrations were carried out at least twice. The raw data were corrected using buffer and protein controls and analyzed using the software supplied by the manufacturer. See Supplementary Table 3 for details.

Each structure is given as a SMILES string. Values joined by “and” are separate entries in the source; they are usually repeats but may differ in a detail not shown here. Identical values can stand only once.

Here are results for three molecules from publication PMC11500415, “Chemical inhibition of stomatal differentiation by perturbation of the master-regulatory bHLH heterodimer via an ACT-Like domain” (Nature Communications, 2024).

Take `O=C1C(c2ccccc2)=NC(NS(=O)(=O)c2ccccc2)(c2ccc(Br)cc2)N1S(=O)(=O)c1ccccc1` (stereo not shown) [AYSJ1061]: the “effect on the SCRM-MUTE heterodimerization (in words)” value on SCRM-MUTE [1] is “minimal effects”. At SCRM-MUTE [2], the “n of SCRM_MUTE binding” value was 1.1, the “-T△S of SCRM_MUTE binding” value came to 35.3 ± 0.6, the “△G of SCRM_MUTE binding” value is -10.2 ± 0.2 and the “△H of SCRM_MUTE binding” value was -45.5 ± 0.6.
`O=C1C(c2ccccc2)=NC(NS(=O)(=O)c2ccccc2)(c2ccccc2)N1S(=O)(=O)c1ccccc1` (stereo not shown) [Stomidazolone]: the Response on SCRM-MUTE [1] (MUTE+Stomid Conc. 78 nM) is 0.031; at SCRM-MUTE [1] (MUTE+Stomid Conc. 78 nM, listed as Stomid) it was 0.0213; on SCRM-MUTE [1] (MUTE+Stomid Conc. 156 nM), 0.0603 and 0.0323; at SCRM-MUTE [1] (MUTE+Stomid Conc. 312.5 nM) it was 0.0687 and 0.078; at SCRM-MUTE [1] (MUTE+Stomid Conc. 625 nM), 0.1313 and 0.1154; at SCRM-MUTE [1] (MUTE+Stomid Conc. 1250 nM), 0.2145 and 0.1812. In addition, the Response on SCRM-MUTE [1] (MUTE+Stomid Conc. 2500 nM) is 0.2742 and 0.2312; on SCRM-MUTE [1] (MUTE+Stomid Conc. 5000 nM) it was 0.2812 and 0.3134. The “n of SCRM_MUTE binding” value on SCRM-MUTE [2] came out at 0.91. In addition, the “-T△S of SCRM_MUTE binding” value at SCRM-MUTE [2] is 5.2 ± 0.4. Moreover, at SCRM-MUTE [2], the “△G of SCRM_MUTE binding” value is on record as -2.3 ± 0.2. Moreover, the “△H of SCRM_MUTE binding” value at SCRM-MUTE [2] is -7.5 ± 0.3.
As to `Cc1ccc(C2(NS(=O)(=O)c3ccccc3)N=C(c3ccccc3)C(=O)N2S(=O)(=O)c2ccccc2)cc1` (stereo not shown) [AYSJ1059], the “effect on the SCRM-MUTE heterodimerization (in words)” value at SCRM-MUTE [1] is given as “minimal effects”. On SCRM-MUTE [2], the “n of SCRM_MUTE binding” value was 1.0, the “-T△S of SCRM_MUTE binding” value was determined as 27.2 ± 0.6, the “△G of SCRM_MUTE binding” value is on record as -6.3 ± 0.2 and the “△H of SCRM_MUTE binding” value is -33.5 ± 0.6.
